Results: ChEMBL document CHEMBL4622958, “Tetrazoles as anticancer agents: A review on synthetic strategies, mechanism of action and SAR studies” (Bioorg Med Chem, 2020)
Values after ≈ are worked out from the molar mass of the structure shown. Counter-ions that a name gives are not always drawn. Values belong to the compound of their own block, whether it stands above or below them.

Assays:
[1] = system: U2OS; assay: Cytotoxicity against human U2OS cells assessed as reduction in cell viability by CellTiter 96 non-radioactive cell proliferation assay; type: functional, cell-based
[2] = system: U2OS; assay: Cytotoxicity against human U2OS cells assessed as reduction in cell viability at 20 uM by CellTiter 96 non-radioactive cell proliferation assay relative to control; type: functional
[3] = system: HUVEC; assay: Cytotoxicity against HUVEC assessed as reduction in cell viability; type: cell-based; details: Homo sapiens
[4] = system: CCRF-CEM; assay: Cytotoxicity against human CCRF-CEM cells assessed as reduction in cell viability at 25 uM after 24 hrs by MTT assay relative to control; type: functional; details: values are per cent of control
[5] = system: CCRF-CEM; assay: Cytotoxicity against human CCRF-CEM cells assessed as reduction in cell viability at 10 uM after 48 hrs by MTT assay relative to control; type: functional; details: values are per cent of control
[6] = system: CCRF-CEM; assay: Cytotoxicity against human CCRF-CEM cells assessed as reduction in cell viability at 50 uM after 24 hrs by MTT assay relative to control; type: functional; details: values are per cent of control
[7] = system: CCRF-CEM; assay: Cytotoxicity against human CCRF-CEM cells assessed as reduction in cell viability at 50 uM after 48 hrs by MTT assay relative to control; type: functional; details: values are per cent of control
[8] = system: CCRF-CEM; assay: Cytotoxicity against human CCRF-CEM cells assessed as reduction in cell viability at 25 uM after 48 hrs by MTT assay relative to control; type: functional; details: values are per cent of control
[9] = system: CCRF-CEM; assay: Cytotoxicity against human CCRF-CEM cells assessed as reduction in cell viability at 10 uM after 24 hrs by MTT assay relative to control; type: functional; details: values are per cent of control
[10] = system: MCF7; assay: Cytotoxicity against human MCF7 cells assessed as reduction in cell viability after 48 hrs by MTT assay; type: functional, cell-based; details: MCF7, 48 h
[11] = system: HOP-62; assay: Growth inhibition of human HOP62 cells after 48 hrs by MTT assay; type: functional; details: HOP-62, 48 h
[12] = system: HeLa; assay: Cytotoxicity against human HeLa cells assessed as reduction in cell viability after 48 hrs by MTT assay; type: functional, cell-based
[13] = system: HT-29; assay: Anticancer activity against human HT-29 cells after 48 hrs by MTT assay; type: functional, cell-based; details: HT-29, 48 h
[14] = system: HepG2; assay: Anticancer activity against human HepG2 cells after 48 hrs by MTT assay; type: functional, cell-based; details: HepG2, 48 h
[15] = Half life in human liver microsome; type: ADME; details: liver microsomes
[16] = system: A549; assay: Anticancer activity against human A549 cells after 48 hrs by MTT assay; type: functional, cell-based; details: A549, 48 h
[17] = system: MCF7; assay: Anticancer activity against human MCF7 cells after 48 hrs by MTT assay; type: functional, cell-based; details: MCF7, 48 h
[18] = system: MCF7; assay: Growth inhibition of human MCF7 cells after 48 hrs by MTT assay; type: functional; details: MCF7, 48 h
[19] = system: HepG2; assay: Anticancer activity against human HepG2 cells after 48 hrs by SRB assay; details: HepG2, 48 h

SMILES: CC(C)(C)n1nnc([C@H](CCCNC(=N)CCl)NC(=O)c2ccc(-c3ccccc3)cc2)n1
EC50 [1]: 10 µM | Activity [2]: 0%

SMILES: CCC(C)n1ncn(-c2ccc(N3CCN(c4ccc(OC[C@@H]5CO[C@@](Cn6nnnc6-c6ccccc6)(c6ccc(Cl)cc6Cl)O5)cc4)CC3)cc2)c1=O (some centres undefined)
IC50 [3]: 0.119 µM

SMILES: CCC(C)n1ncn(-c2ccc(N3CCN(c4ccc(OC[C@@H]5CO[C@@](Cn6ncnn6)(c6ccc(Cl)cc6Cl)O5)cc4)CC3)cc2)c1=O (some centres undefined)
IC50 [3]: 0.124 µM

SMILES: CCC(C)n1ncn(-c2ccc(N3CCN(c4ccc(OC[C@@H]5CO[C@@](Cn6nnnc6C)(c6ccc(Cl)cc6Cl)O5)cc4)CC3)cc2)c1=O (some centres undefined)
IC50 [3]: 0.101 µM

SMILES: Clc1ccccc1-c1nnnn1CCCn1cnc2c(Br)c(Br)c(Br)c(Br)c21
viability, % of control at 25 µM [4]: 1% | viability, % of control at 10 µM [5]: 51% | viability, % of control at 50 µM [6]: 2% | viability, % of control at 50 µM [7]: 0% | viability, % of control at 25 µM [8]: 1% | viability, % of control at 10 µM [9]: 65%

SMILES: CC(C)(C)n1nnc([C@H](CCCNC(=N)CBr)NC(=O)c2ccc(-c3ccccc3)cc2)n1
EC50 [1]: 45 µM | Activity [2]: 50%

SMILES: Brc1c(Br)c(Br)c2c(ncn2CCCn2nnnc2-c2ccccc2)c1Br
viability, % of control at 25 µM [4]: 4% | viability, % of control at 10 µM [5]: 57% | viability, % of control at 50 µM [6]: 2% | viability, % of control at 50 µM [7]: 0% | viability, % of control at 25 µM [8]: 0% | viability, % of control at 10 µM [9]: 67%

SMILES: CCOC(=O)Cn1nnnc1/C(=C/c1ccc(F)cc1)NC(=O)c1ccccc1
IC50 [10]: 47.9 µM

SMILES: O=[N+]([O-])c1ccc(-c2nnnn2-c2ccc(-c3nc4ccccc4o3)cc2)cc1
GI50 [11]: 1.22 µM

SMILES: O=[N+]([O-])c1cccc(-c2nnnn2-c2ccc(-c3nc4ccccc4o3)cc2)c1
GI50 [11]: 2.9 µM

SMILES: Clc1ccccc1-c1nnn(CCCn2cnc3c(Br)c(Br)c(Br)c(Br)c32)n1
viability, % of control at 25 µM [4]: 96% | viability, % of control at 10 µM [5]: 104% | viability, % of control at 50 µM [6]: 68% | viability, % of control at 50 µM [7]: 42% | viability, % of control at 25 µM [8]: 89% | viability, % of control at 10 µM [9]: 102%

SMILES: CCOC(=O)Cn1nnnc1/C(=C/c1ccc(OC)cc1)NC(=O)c1ccccc1
IC50 [10]: 44.6 µM

SMILES: Fc1ccc(/C=C/c2nc3ccc(Br)cc3c3nnnn23)cc1
IC50 [10]: 21 µM | IC50 [12]: 22.4 µM

SMILES: Fc1ccc(-c2ccc3nc(/C=C/c4ccccc4)n4nnnc4c3c2)cc1
IC50 [10]: > 200 µM | IC50 [12]: > 200 µM

SMILES: Brc1ccc2nc(/C=C/c3ccccc3)n3nnnc3c2c1
IC50 [10]: 9.6 µM | IC50 [12]: 7.3 µM

SMILES: COc1cc(-c2nnnn2-c2ccc(-c3nc4ccccc4o3)cc2)cc(OC)c1OC
GI50 [11]: 1.67 µM

IC50 [13]: 5.97 µM | IC50 [14]: 5.72 µM | half-life [15]: 9.17 h | IC50 [16]: 10.6 µM | IC50 [17]: 9.88 µM
SMILES: O=C(NC(=O)Nc1ccc(F)cc1F)Nc1ccc(Oc2ccnc(-n3cnnn3)c2)c(F)c1

IC50 [13]: 20.6 µM | IC50 [14]: 0.55 µM | half-life [15]: 2.28 h | IC50 [16]: 6.25 µM | IC50 [17]: 7.76 µM
SMILES: O=C(NC(=O)Nc1ccc(Oc2ccnc(-n3cnnn3)c2)c(F)c1)Nc1cccc(F)c1

SMILES: Brc1c(Br)c(Br)c2c(ncn2CCCn2nnc(-c3ccccc3)n2)c1Br
viability, % of control at 25 µM [4]: 73% | viability, % of control at 10 µM [5]: 105% | viability, % of control at 50 µM [6]: 4% | viability, % of control at 50 µM [7]: 0% | viability, % of control at 25 µM [8]: 64% | viability, % of control at 10 µM [9]: 106%

SMILES: CCOC(=O)Cn1nnnc1/C(=C/c1ccc(Cl)cc1)NC(=O)c1ccccc1
IC50 [10]: 40.2 µM

SMILES: Fc1ccc(C#Cc2ccc3nc(/C=C/c4ccccc4)n4nnnc4c3c2)cc1
IC50 [10]: > 200 µM | IC50 [12]: > 200 µM

SMILES: N[C@@H](Cc1ccc(N(CCCl)CCCl)cc1)C(=O)O
IC50 [10]: 61 µM | IC50 [12]: 88.9 µM

GI50 [18]: 170 µM
SMILES: COc1cccc2c1C(=O)c1c(O)c3c(c(O)c1C2=O)C[C@@](O)(C(=O)CO)C[C@@H]3O[C@H]1C[C@H](N)[C@H](O)[C@H](C)O1 [DOXORUBICIN HYDROCHLORIDE]
GI50 [11]: 0.14 µM

IC50 [19]: 4000 µg/mL (≈ 7.36 mM)
SMILES: COc1cccc2c1C(=O)c1c(O)c3c(c(O)c1C2=O)C[C@@](O)(C(=O)CO)C[C@@H]3O[C@H]1C[C@H](N)[C@H](O)[C@H](C)O1 [DOXORUBICIN]

IC50 [13]: 10.1 µM | IC50 [14]: 9.64 µM | IC50 [16]: 11.2 µM | IC50 [17]: 10.9 µM
SMILES: CNC(=O)c1cc(Oc2ccc(NC(=O)Nc3ccc(Cl)c(C(F)(F)F)c3)cc2)ccn1 [SORAFENIB]
